# Legend:
# topoisomerase II = molecular target: T1, topoisomerase II (Homo sapiens, UniProt P11388); test: Topoisomerase II drug screening kit (relaxation of plasmid DNA); assay type: biochemical; set-up: key to Topoisomerase II Inhibition: — none; + low; ++ moderate; +++ strong; details: for Topoisomerase II Inhibition: 100 μM drug compound, topoisomerase II (4U), 500 ng plasmid DNA; for inhibition of topoisomerase II catalytic activity (in words): 100 μM makaluvamine derivative
# T1 construct: purchased TopoGEN, Inc., Port Orange, Fla
# T1 sequence (P11388 whole entry): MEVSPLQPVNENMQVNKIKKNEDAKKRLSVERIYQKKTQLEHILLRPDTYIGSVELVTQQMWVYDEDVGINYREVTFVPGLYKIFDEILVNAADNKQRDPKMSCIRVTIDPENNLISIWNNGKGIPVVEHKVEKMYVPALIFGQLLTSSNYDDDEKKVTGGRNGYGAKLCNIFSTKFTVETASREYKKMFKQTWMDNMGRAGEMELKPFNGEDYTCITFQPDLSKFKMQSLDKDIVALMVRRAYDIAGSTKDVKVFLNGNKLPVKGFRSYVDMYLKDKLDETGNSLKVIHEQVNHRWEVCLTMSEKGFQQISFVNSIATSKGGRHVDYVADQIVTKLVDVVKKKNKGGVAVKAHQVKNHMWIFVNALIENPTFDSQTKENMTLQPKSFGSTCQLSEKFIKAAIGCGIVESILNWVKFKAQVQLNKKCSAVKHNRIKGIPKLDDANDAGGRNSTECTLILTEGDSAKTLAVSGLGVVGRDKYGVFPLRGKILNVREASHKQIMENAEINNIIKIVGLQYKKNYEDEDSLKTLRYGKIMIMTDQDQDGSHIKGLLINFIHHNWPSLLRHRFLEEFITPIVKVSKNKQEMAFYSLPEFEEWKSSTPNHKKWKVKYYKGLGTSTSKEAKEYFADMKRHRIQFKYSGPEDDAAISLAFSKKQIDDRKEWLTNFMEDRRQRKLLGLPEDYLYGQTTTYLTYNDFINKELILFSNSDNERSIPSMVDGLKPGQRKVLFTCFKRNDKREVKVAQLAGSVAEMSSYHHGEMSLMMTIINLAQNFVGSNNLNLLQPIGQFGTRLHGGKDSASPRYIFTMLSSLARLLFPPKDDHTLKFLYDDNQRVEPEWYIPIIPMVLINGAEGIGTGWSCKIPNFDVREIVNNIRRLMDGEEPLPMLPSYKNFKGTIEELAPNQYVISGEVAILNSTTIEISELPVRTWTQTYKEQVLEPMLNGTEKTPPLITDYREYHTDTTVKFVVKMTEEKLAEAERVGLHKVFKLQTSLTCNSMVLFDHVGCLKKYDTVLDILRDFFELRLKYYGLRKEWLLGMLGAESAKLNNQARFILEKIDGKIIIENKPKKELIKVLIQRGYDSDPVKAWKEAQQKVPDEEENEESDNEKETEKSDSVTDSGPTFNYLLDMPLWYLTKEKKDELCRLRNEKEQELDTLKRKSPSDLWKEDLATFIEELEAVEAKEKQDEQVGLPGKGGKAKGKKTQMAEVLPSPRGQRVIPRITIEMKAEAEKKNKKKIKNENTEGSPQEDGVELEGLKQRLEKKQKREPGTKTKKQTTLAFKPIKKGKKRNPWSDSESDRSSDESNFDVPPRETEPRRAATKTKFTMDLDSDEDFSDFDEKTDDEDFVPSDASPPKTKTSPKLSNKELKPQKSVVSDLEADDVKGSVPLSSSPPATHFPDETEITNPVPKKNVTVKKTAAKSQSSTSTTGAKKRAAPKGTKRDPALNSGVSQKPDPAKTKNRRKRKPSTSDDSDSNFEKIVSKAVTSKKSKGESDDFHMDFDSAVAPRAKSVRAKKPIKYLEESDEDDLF
# Description: In order to determine the effect of the makaluvamine derivatives of the present disclosure, the synthesized makaluvamine derivatives were screened for their ability to inhibit topoisomerase II activity in vitro. Topoisomerase II functions by generating a double-stranded DNA break followed by resealing of the break. Topoisomerase II inhibitors interfere with the breakage-rejoining reaction thereby trapping the enzyme in a cleavage complex. In order to determine if the disclosed makaluvamine derivatives inhibited topoisomerase II activity, nine of the derivatives were tested for topoisomerase II inhibitory activity using a topoisomerase-II drug screening kit (TopoGEN, Inc., Port Orange, Fla.) according to the manufacturer's instructions. The screening kit uses a supercoiled plasmid DNA substrate (pRYG) which contains one topoisomerase II cleavage/recognition site. […] Relaxed DNA was separated using non-ethidium bromide (EtBr) agarose gels, then stained with EtBr and quantified using Kodak Gel Logic Imaging System and Molecular Imaging software (Eastman Kodak Co., Rochester, N.Y.). Inhibition of relaxation of plasmid DNA or catalytic activity was reported as; − none, + low, ++ moderate, or +++ strong.
# BT-459 = test: NCI60 cell line screen (SRB); assay type: cell-based, human; details: BT-459, Breast Cancer, 48 h
# Description: (§1) This panel implements the NCI60 cell line screen, including leukemia, non-small cell lung cancer, colon cancer, central nervous system cancer, melanoma, ovarian cancer, renal cancer, prostate cancer and breast cancer. The cell lines tested are specified in Table 3.
# (§2) Generally, the human tumor cell lines of the cancer screening panel are grown in RPMI 1640 medium containing 5% fetal bovine serum and 2 mM L-glutamine. For a typical screening experiment, cells are inoculated into 96 well microtiter plates in 100 μL at plating densities ranging from 5,000 to 40,000 cells/well depending on the doubling time of individual cell lines. After cell inoculation, the microtiter plates are incubated at 37° C., 5% CO2, 95% air and 100% relative humidity for 24 h prior to addition of experimental drugs. After 24 h, two plates of each cell line are fixed in situ with TCA, to represent a measurement of the cell population for each cell line at the time of drug addition (Tz). Experimental drugs are solubilized in dimethyl sulfoxide at 400-fold the desired final maximum test concentration and stored frozen prior to use. At the time of drug addition, an aliquot of frozen concentrate is thawed and diluted to twice the desired final maximum test concentration with complete medium containing 50 μg/ml gentamicin. Additional four, 10-fold or ½ log serial dilutions are made to provide a total of five drug concentrations plus control. Aliquots of 100 μl of these different drug dilutions are added to the appropriate microtiter wells already containing 100 μl of medium, resulting in the required final drug concentrations.
# (§3) Following drug addition, the plates are incubated for an additional 48 h at 37° C., 5% CO2, 95% air, and 100% relative humidity. For adherent cells, the assay is terminated by the addition of cold TCA. Cells are fixed in situ by the gentle addition of 50 μl of cold 50% (w/v) TCA (final concentration, 10% TCA) and incubated for 60 minutes at 4° C. The supernatant is discarded, and the plates are washed five times with tap water and air dried. Sulforhodamine B (SRB) solution (100 μl) at 0.4% (w/v) in 1% acetic acid is added to each well, and plates are incubated for 10 minutes at room temperature. After staining, unbound dye is removed by washing five times with 1% acetic acid and the plates are air dried. Bound stain is subsequently solubilized with 10 mM trizma base, and the absorbance is read on an automated plate reader at a wavelength of 515 nm. For suspension cells, the methodology is the same except that the assay is terminated by fixing settled cells at the bottom of the wells by gently adding 50 μl of 80% TCA (final concentration, 16% TCA). Using the seven absorbance measurements (time zero, Tz, control growth, (control), and test growth in the presence of drug at the five concentration levels (Ti)), the percentage growth is calculated at each of the drug concentrations levels. Percentage growth inhibition is calculated as:
# (§4) [(Ti−Tz)/(C−Tz)]×100 for concentrations for which Ti>/=Tz
# (§5) [(Ti−Tz)/Tz]×100 for concentrations for which Ti<Tz.
# CAKI-1 = test: NCI60 cell line screen (SRB); assay type: cell-based, human; details: CAKI-1, Renal Cancer, 48 h
# Description: as §1, §2, §3, §4, §5
# LOX IMVI = test: NCI60 cell line screen (SRB); assay type: cell-based, human; details: Melanoma, 48 h
# Description: as §1, §2, §3, §4, §5
# MDA-MB-231/ATCC = test: NCI60 cell line screen (SRB); assay type: cell-based, human; details: Breast Cancer, 48 h
# Description: as §1, §2, §3, §4, §5
# MDA-MB-435 = test: NCI60 cell line screen (SRB); assay type: cell-based, human; details: MDA-MB-435, Breast Cancer, 48 h
# Description: as §1, §2, §3, §4, §5
# NCI-H23 = test: NCI60 cell line screen (SRB); assay type: cell-based, human; details: NCI-H23, Non-Small Cell Lung Cancer, 48 h
# Description: as §1, §2, §3, §4, §5
# NCI-H460 = test: NCI60 cell line screen (SRB); assay type: cell-based, human; details: NCI-H460, Non-Small Cell Lung Cancer, 48 h
# Description: as §1, §2, §3, §4, §5
# SK-OV-3 = test: NCI60 cell line screen (SRB); assay type: cell-based, human; details: SK-OV-3, Ovarian Cancer, 48 h
# Description: as §1, §2, §3, §4, §5
SMILES,Topoisomerase II Inhibition (topoisomerase II),GI50 (BT-459),GI50 (CAKI-1),GI50 (LOX IMVI),GI50 (MDA-MB-231/ATCC),GI50 (MDA-MB-435),GI50 (NCI-H23),GI50 (NCI-H460),GI50 (SK-OV-3),inhibition of topoisomerase II catalytic activity (in words) (topoisomerase II),GI50 (BT-459; Homo sapiens),GI50 (CAKI-1; Homo sapiens),GI50 (LOX IMVI; Homo sapiens),GI50 (MDA-MB-231/ATCC; Homo sapiens),GI50 (MDA-MB-435; Homo sapiens),GI50 (NCI-H23; Homo sapiens),GI50 (NCI-H460; Homo sapiens),GI50 (SK-OV-3; Homo sapiens)
CNC1=CC2=NCCc3c[nH]c(c32)C1=O [Compound 4a],—,7380 nM,1950 nM,3430 nM,3130 nM,1800 nM,2460 nM,2160 nM,18700 nM,,,,,,,,,
O=C1C(NCc2ccccc2)=CC2=NCCc3c[nH]c1c32 [Compound 4c],++,4580 nM,298 nM,1810 nM,439 nM,2030 nM,1470 nM,1510 nM,7010 nM,comparable to etoposide and m-AMSA,,,,,,,,
O=C1C(NCCc2ccccc2)=CC2=NCCc3c[nH]c1c32 [Compound 4d],+,,,,,,,,,comparable to etoposide and m-AMSA,,,,,,,,
O=C(O)C(F)(F)F.O=C1C(NCCc2ccc3c(c2)OCO3)=CC2=NCCc3c[nH]c1c32 [Compound 6],,,,,,,,,,,3070 nM,1770 nM,1680 nM,2320 nM,1890 nM,1690 nM,1010 nM,9700 nM
COc1ccc(CCNC2=CC3=NCCc4c[nH]c(c43)C2=O)cc1OC.O=C(O)C(F)(F)F [Compound 20],,,,,,,,,,,4530 nM,2670 nM,2340 nM,3210 nM,2050 nM,2000 nM,1420 nM,14600 nM
O=C(O)C(F)(F)F.O=C1C(NCc2ccc(F)cc2)=CC2=NCCc3c[nH]c1c32 [Compound 28],,,,,,,,,,,3140 nM,329 nM,1570 nM,725 nM,1750 nM,521 nM,816 nM,3150 nM

# Source: patent publication US20100144779A1, “Marine Alkalod Makaluvamines and Derivatives Thereof” (THE UAB RESEARCH FOUNDATION, priority 2007, published 2010)
